Data published in patent publication US7910622B2, “Modulation of bacterial quorum sensing with synthetic ligands” (Wisconsin Alumni Research Foundation, priority 2007, dated 2011).
Where “and” joins values, the source holds several entries; their conditions need not be identical. Identical values can stand only once. Like-named read-outs stand apart in the source and are kept apart here. Marks after values point to notes of the source that are not given here.

Tests used:
Assay in all cases: cell-based
[1] = target: T1, TraR (Agrobacterium tumefaciens, UniProt P33905); conditions: for Activation (%) / Inhibition (%): A. tumefaciens-TraR; for Activation (%): Library C primary agonism screen; for Inhibition (%): Library C primary antagonism screen; for A. tumefaciens-TraR Activation [%]: 10 μM ligand; for A. tumefaciens-TraR Activation [%] / A. tumefaciens-TraR Inhibition [%] / inhibition at 10 µM: A. tumefaciens WCF47 (pCF372), normalized to OOHL; for A. tumefaciens-TraR Inhibition [%]: 10 μM synthetic ligand against 100 nM OOHL; for activation at 10 µM: read-out: A. tumefaciens-TraR Activation [%]; for inhibition at 10 µM: read-out: A. tumefaciens-TraR Inhibition [%], 10 μM synthetic ligand against 100 nM OOHL
T1 construct: These strains lack their AHL synthase (I) genes, but retain their native R genes; endogenous in cells; host or cells: A. tumefaciens WCF47 (Δ-traI) with PtraI-lacZ plasmid pCF372
T1 sequence (P33905 whole entry): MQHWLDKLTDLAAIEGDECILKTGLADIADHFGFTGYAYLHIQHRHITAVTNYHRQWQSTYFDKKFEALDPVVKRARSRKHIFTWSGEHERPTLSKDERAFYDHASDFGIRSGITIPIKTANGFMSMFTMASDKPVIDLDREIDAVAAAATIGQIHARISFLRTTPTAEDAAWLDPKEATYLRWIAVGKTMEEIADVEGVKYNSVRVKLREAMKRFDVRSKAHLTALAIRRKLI
Method: A. tumefaciens reporter gene assay protocols. […] An overnight culture of A. tumefaciens WCF47 (pCF372) was diluted to an OD600 of 0.1 in fresh AB minimal medium containing 400 μg/mL octopine and 50 μg/mL streptomycin. A 200 μL-portion of the diluted culture was added to each well of the multititer plate containing AHLs. Plates were grown at 28° C. for 18-20 h in a rotary shaking incubator (200 rpm). The cultures were then assayed for β-galactosidase activity following the Miller assay method. Briefly, 200 μL aliquots of bacteria from each of the wells were added to wells of a polystyrene 96-well plate and the OD600 of each well was recorded. Next, 50 μL aliquots from each well were transferred to a solvent resistant 96-well plate containing 200 μL Z buffer, 8 μL CHCl3 and 4 μL 0.1% aq. sodium dodecylsulfate (SDS). This suspension was mixed via repetitive pipetting, after which the CHCl3 was allowed to settle. A 100-μL aliquot from each well was transferred to a fresh polystyrene 96-well plate, and 20 μL of substrate, o-nitrophenyl-β-D-galactopyranoside (ONPG, 4 μg/mL in phosphate buffer), was added at time zero. After the development of appropriate yellow color (ca. 15-35 min), the reaction was terminated by the addition of 50 μL of 1 M Na2CO3. Absorbance at 420 nm and 550 nm was measured for each well using a plate reader, and Miller units were calculated according to standard methods.
(§1) Dose response reporter gene assays. […] IC50 and EC50 values were calculated using GraphPad Prism software (v. 4.0) using a sigmoidal curve fit.
A. tumefaciens reporter gene assay protocols. […] An overnight culture of A. tumefaciens WCF47 (pCF372) was diluted 1:10 with fresh AB minimal medium containing 400 μg/mL octopine and 50 μg/mL streptomycin. A 200 μL portion of the diluted culture was added to each well of the multititer plate containing AHLs. Plates were incubated at 28° C. for 18-24 h. The cultures were then assayed for β-galactosidase activity following the Miller assay method. Briefly, 200 μL aliquots of bacteria from each of the wells were added to wells of a 96-well multititer plate, and the OD600 of each well was recorded. Next, 50 μL aliquots from each well were transferred to a solvent resistant 96-well multititer plate containing 200 μL Z buffer, 8 μL CHCl3 and 4 μL 0.1% aq. SDS. This suspension was mixed via repetitive pipetting, after which the CHCl3 was allowed to settle. A 100 μL aliquot from each well was transferred to a fresh 96-well multititer plate, and 20 μL of substrate, o-nitrophenyl-β-D-galactopyranoside (ONPG, 4 μg/mL in phosphate buffer), was added at time zero. After the development of appropriate yellow color (ca. 20-30 min), the reaction was terminated by the addition of 50 μL of 1 M Na2CO3. Absorbances at 420 nm and 550 nm were measured for each well using a plate reader, and Miller units were calculated according to standard methods.
as §1

[2] = target: T2, LasR (Pseudomonas aeruginosa, UniProt P25084); format: cell-based; conditions: for Inhibition (%): E. coli-LasR, Library C primary antagonism screen; for E. coli-LasR Inhibition [%]: 5 μM synthetic ligand against 7.5 nM OdDHL; for E. coli-LasR Inhibition [%] / inhibition at 5 µM: E. coli DH5α (pJN105L pSC11), normalized to OdDHL; for inhibition at 5 µM: read-out: E. coli-LasR Inhibition [%], 5 μM synthetic ligand against 7.5 nM OdDHL
T2 construct: expressed in transfected cells; host or cells: E. coli DH5α (pJN105L pSC11), arabinose-induced
T2 sequence (P25084 whole entry): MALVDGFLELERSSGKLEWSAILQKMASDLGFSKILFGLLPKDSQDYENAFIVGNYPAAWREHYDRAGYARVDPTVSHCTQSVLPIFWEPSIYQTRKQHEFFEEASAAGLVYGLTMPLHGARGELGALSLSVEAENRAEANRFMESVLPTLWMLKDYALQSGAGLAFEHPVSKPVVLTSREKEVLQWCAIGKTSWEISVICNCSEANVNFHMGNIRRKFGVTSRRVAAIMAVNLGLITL
Method: (§2) E. coli LasR reporter gene assay protocols. […] An overnight culture of E. coli DH5a (pJN105L pSC11) grown at 37° C. was subculture by diluting 1/10 in fresh LB medium containing 100 μg/mL ampicillin and 15 μg/mL gentamicin and shaking at 37° C. until OD600=0.3. Arabinose (4 mg/mL) was then added to induce the LasR promoter and a 200 μL-portion of this culture was added to each well of the multititer plate containing AHLs. Plates were grown at 37° C. for 2 hours in a rotary shaking incubator (200 rpm; OD600=0.45). The cultures were then assayed for activity following the identical β-galactosidase assay protocols used in the A. tumefaciens reporter gene assays.
as §1
(§3) E. coli LasR reporter gene assay protocols. […] An overnight culture of E. coli DH5α (pJN105L pSC11) was diluted 1:10 with fresh LB medium containing 100 μg/mL ampicillin and 15 μg/mL gentamicin. This sub-culture was incubated at 37° C. until OD600=0.3 (4-6 h). Arabinose (4 mg/mL) was then added to induce the LasR promoter, and a 200 μL portion of this culture was added to each well of the multititer plate containing AHLs. Plates were incubated at 37° C. until OD600=0.45 (4-6 h). The cultures were then assayed for LasR activity following the identical β-galactosidase assay protocols used in the A. tumefaciens reporter gene assays (see above).
as §1

[3] = target: T2, LasR; conditions: for Activation (%): E. coli-LasR, Library C primary agonism screen; for E. coli-LasR Activation [%]: 5 μM ligand; for E. coli-LasR Activation [%] / activation at 5 µM: E. coli DH5α (pJN105L pSC11), normalized to OdDHL; for activation at 5 µM: read-out: E. coli-LasR Activation [%], 5 μM ligand
Method: as §2, §1, §3, §1

[4] = target: T3, LuxR (Aliivibrio fischeri, UniProt P35327); format: cell-based, Vibrio fischeri; conditions: for Inhibition (%): V. fischeri-LuxR, Library C primary antagonism screen; for V. fischeri-LuxR Inhibition [%]: 5 μM synthetic ligand against 5 μM OHHL; for V. fischeri-LuxR Inhibition [%] / inhibition at 5 µM: V. fischeri ES114 (Δ-luxI), normalized to OHHL; for inhibition at 5 µM: read-out: V. fischeri-LuxR Inhibition [%], 5 μM synthetic ligand against 5 μM OHHL
T3 construct: a Δ-luxI derivative of V. fischeri ES114, in which the native lux operon behaves as the bioluminescent reporter; endogenous in cells; host or cells: V. fischeri ES114 (Δ-luxI)
T3 sequence (P35327 whole entry): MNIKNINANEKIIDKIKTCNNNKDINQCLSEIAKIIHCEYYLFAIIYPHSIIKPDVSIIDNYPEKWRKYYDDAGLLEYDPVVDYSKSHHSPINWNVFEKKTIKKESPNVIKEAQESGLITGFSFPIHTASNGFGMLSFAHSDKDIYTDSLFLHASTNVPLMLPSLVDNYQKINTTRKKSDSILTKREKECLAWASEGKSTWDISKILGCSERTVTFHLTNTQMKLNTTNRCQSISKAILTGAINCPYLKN
Method: (§4) Luminescence assays. For agonism assays, an appropriate amount of AHL stock solution was added into a 96-well plate. An overnight culture of E. coli or V. fischeri was diluted 1:10 with appropriate media (LB plus 10 μg/mL tetracycline for E. coli; LBS for V. fischeri). A 200-μL portion of the diluted culture was added to each well of the plate. Plates were grown for 4-8 h with shaking (200 rpm; 30° C. for E. coli and RT for V. fischeri). Luminescence was measured using a multilabel plate reader and normalized to cell density. […] All assays were performed in triplicate. Graphpad Prism software was used to calculate IC50 and EC50 values.
(§5) Vibrio fischeri assay procedures. […] An overnight culture of V. fischeri ES114 (WT, Δ-luxI or Δ-luxR) was diluted 1:10 with LBS medium. A-200 μL portion of the diluted culture was added to each well of the plate. Plates were grown at RT with shaking (200 rpm) until the OD600=0.35-0.4 (4-6 h). Luminescence then was measured and normalized to cell density per well. […] All assays were performed in triplicate. IC50 and EC50 values were calculated using GraphPad Prism software using a sigmoidal curve fit.
(§6) V. fischeri reporter gene assay protocols. […] An overnight culture of V. fischeri ES114 (D-luxI) was diluted 1:10 with LBS medium. A 200-μL portion of the diluted culture was added to each well of the multititer plate. Plates were grown at RT with shaking (200 rpm) until the OD600=0.35-0.4 (4-6 h). Luminescence then was measured and normalized to cell density per well.
as §1
as §6, with “(Δ-luxI)” for “(D-luxI)”, “A200 μL” for “A 200-μL”, “incubated” for “grown”, “RT” for “RT with shaking (200 rpm)”
as §1

[5] = target: T3, LuxR; parameters: species or system Vibrio fischeri; conditions: for Activation (%): V. fischeri-LuxR, Library C primary agonism screen; for V. fischeri-LuxR Activation [%]: 200 μM ligand; for V. fischeri-LuxR Activation [%] / activation at 200 µM: V. fischeri ES114 (Δ-luxI), normalized to OHHL; for activation at 200 µM: read-out: V. fischeri-LuxR Activation [%], 200 μM ligand
Method: as §4, §5, §6, §1
as §6, with “(Δ-luxI)” for “(D-luxI)”, “A200 μL” for “A 200-μL”, “incubated” for “grown”, “RT” for “RT with shaking (200 rpm)”
as §1

Compound | A. tumefaciens-TraR Activation [%] [1] | A. tumefaciens-TraR Inhibition [%] [1] | E. coli-LasR Inhibition [%] [2] | E. coli-LasR Activation [%] [3] | V. fischeri-LuxR Inhibition [%] [4] | V. fischeri-LuxR Activation [%] [5] | other results
4-methyl PHL [C19] | – | – | – | – | – | – | Activation (%) [1]: 3%; Inhibition (%) [1]: 21%; Inhibition (%) [2]: 11%; Activation (%) [3]: 0%; Inhibition (%) [4]: 58%; Activation (%) [5]: 1%
CC(=O)c1ccc(OCC(=O)N[C@H]2CCOC2=O)cc1C [D17] | 1% | 92% | 26% | 0% | 50% | 2% | IC50 ([1]; determined against 100 nM OOHL, read-out: TraR IC50): 1400 nM
4-hydroxy PHL [C23] | – | – | – | – | – | – | Activation (%) [1]: 0%; Inhibition (%) [1]: 3%; Inhibition (%) [2]: 7%; Activation (%) [3]: 0%; Inhibition (%) [4]: 12%; Activation (%) [5]: 2%
D-enantiomer of OOHL [A24] | 4% | 6% | 16% | 0% | 7% | 2% | –
CCCCCCCCCCCC(=O)N[C@H]1CCOC1=O [A5, C12 AHL] | – | – | – | – | – | – | activation at 10 µM [1]: 1%; inhibition at 10 µM [1]: 22%; inhibition at 5 µM [2]: -10%; activation at 5 µM [3]: ~85%; EC50 ([3]; read-out: LasR EC50): 40 nM; inhibition at 5 µM [4]: 73%; activation at 200 µM [5]: 2%
CCCCCCCCCC(=O)NC1CCOC1=O (centres unmarked) [A4, C10 AHL] | – | – | – | – | – | – | IC50 [1]: 1050 nM; activation at 10 µM [1]: 2%; inhibition at 10 µM [1]: 92%; IC50 [2]: 250 nM; LasR: concentration at which the compound elicits its maximal inhibition (value in parentheses) ([2]; against 7.5 nM OdDHL, dose response curve did not reach 100% inhibition): (2.0)^f μM; inhibition at 5 µM [2]: 34%; EC50 [3]: > 200000 nM; activation at 5 µM [3]: ≤ 44%; IC50 ([4]; LuxR IC50, determined against 5 μM OHHL): 900 nM and 400 nM; inhibition at 5 µM [4]: 96%; activation at 200 µM [5]: 1%
O=C(CC(=O)N[C@@H]1CCOC1=O)Cc1ccccc1 [B2] | 2% | 50% | −7% | 84% | 46% | 3% | EC50 ([3]; read-out: LasR EC50): 540 nM
CC(C)(C)OC(=O)NCc1ccc(C(=O)N[C@H]2CCOC2=O)cc1 [A21] | 0% | 13% | 12% | 0% | 35% | 1% | –
CCCCCCCCCCCCCCCC(=O)N[C@H]1CCOC1=O [A6] | 0% | 0% | 5% | 11% | 27% | 2% | –
O=C(Cc1ccccc1I)N[C@H]1CCOC1=O [B15] | 0% | 5% | 17% | 0% | 63% | 7% | –
COc1cc(C(C)=O)ccc1OCC(=O)N[C@H]1CCOC1=O [D16] | 0% | 11% | 18% | 0% | 40% | 1% | –
O=C(/C=C/c1ccccc1)N[C@H]1CCOC1=O [A19] | 3% | 7% | 22% | 2% | 48% | 3% | –
C=CCCC(=O)N[C@H]1CCOC1=O [A23] | 0% | 5% | 12% | 0% | 18% | 2% | –
COc1ccc(CC(=O)N[C@H]2CCOC2=O)cc1 [C24] | – | – | – | – | – | – | Activation (%) [1]: 0%; Inhibition (%) [1]: 26%; Inhibition (%) [2]: 16%; Activation (%) [3]: 0%; Inhibition (%) [4]: 57%; Activation (%) [5]: 3%
